Laboratory results: publication PMC9936538, “Structure–Activity Relationship of N-Ethyl-Hexedrone Analogues: Role of the α-Carbon Side-Chain Length in the Mechanism of Action, Cytotoxicity, and Behavioral Effects in Mice” (ACS Chemical Neuroscience, 2023)

Columns and labels:
Swiss CD-1 mice = experiment: Conditioned place preference (CPP); format: in vivo; conditions: for CPP preference score vs saline: 3 mg/kg i.p.
Method: Male Swiss CD-1 mice (Janvier, Le Genest, France) weighing 30–35 g (6–8 weeks old), housed in temperature-controlled conditions (22 ± 1 °C) under a 12 h light/dark cycle and with free access to food and drinking water (standard laboratory diet, Panlab SL, Barcelona, Spain), were randomly assigned to an experimental group. Efforts were made to minimize animal use and suffering.
The potential of the studied compounds to induce reward was determined using a place conditioning paradigm, as described.[6] For this experiment, an apparatus with two distinct compartments, with differences in tactile and visual cues, communicated by a central corridor, has been used. In brief, CPP was performed in three phases: preconditioning test, conditioning, and postconditioning test. During the preconditioning phase (day 0), mice were placed in the middle of the corridor and had free access to both compartments for 15 min. The time spent in each compartment was recorded and monitored using a specific tracking software (Smart 3.0 Panlab, Barcelona, Spain). […] In the alternative session, mice received a saline i.p. injection and were placed for 20 min in the other compartment. Mice in the control group received a saline injection in every session. The compartment and session in which mice received the drug were randomized. On the test day (postconditioning phase), the same conditions as in the preconditioning phase were applied. A preference score was calculated as the difference between the time spent in the drug-paired compartment in the postconditioning test minus the time spent in the preconditioning phase.

[1] = Cytotoxicity in NGF-differentiated PC12 cells, WST-8 cell viability assay; format: cell-based; conditions: rat, WST-8, 24 h exposure, mean ± SEM of 3–4 experiments, read-out: LC50 (approximated), cell viability
Method: Pheochromocytoma cells (PC12) cells were cultured in collagen-coated dishes in DMEM supplemented with heat-inactivated 5% FBS, 10% horse serum, 10 mM HEPES, 2 mM glutamine, 25 UI/mL penicillin, and 25 μg/mL streptomycin (maintenance medium) and grown at 37 °C in a humidified 5% CO2 atmosphere. Cell differentiation was performed as described[54] with minor modifications. In brief, cells were seeded (250.000 cells/well) onto 96-well plates in the maintenance medium, and after 24 h, the medium was changed to a differentiation medium containing 50 ng/mL NGF. After 24 h, neurite outgrowth was already apparent.
Treatments with different concentrations of the drug in DMEM were performed 48 h after cell differentiation. 10 μL of the tested drug was added per well, in triplicate, and cells were incubated for 24 h at 37 °C in a humidified 5% CO2 atmosphere. Thereafter, the medium was removed and immediately replaced with a maintenance medium. 10 μL of the CCK-8 Cell Counting Kit, based on 2-(2-methoxy-4-nitrophenyl)-3-(4-nitrophenyl)-5-(2,4-disulfophenyl)-2H-tetrazolium, monosodium salt (WST-8), was added per well and was incubated for 2 h at 37 °C in a humidified 5% CO2 atmosphere. This method has been defined as a good alternative to the 3-(4,5-dimethylthiazol-2-yl)-2,5-diphenyltetrazoliumbromide (MTT) assay.[63] Optical density was measured at 450 nm, using a microplate reader.
For in vitro assays, data were normalized with 100% defined as the mean of the technical replicates in the control group and expressed as mean ± SEM. Nonlinear regression was used to fit the different competition curves. Data were plotted and best fitted to a sigmoidal dose–response curve from which an IC50 or LC50 value was obtained. Transporter ratios were calculated as (1/DAT IC50: 1/SERT IC50). Although IC50 values at inhibiting 5-HT uptake for some compounds tested are expressed as >100 μM for clarity purposes, DAT/SERT ratios were calculated with the original raw data. The Cheng–Prusoff equation was used to calculate Ki (affinity): Ki = EC50/(1 + [radioligand concentration/Kd]).[65] The sample size for behavioral experiments was determined using GPower software. One-way or two-way ANOVA, and subsequent Tukey’s posthoc test, conducted only if F was significant, was used to determine the effects of cathinones on cytotoxicity, HLA, OF, and CPP experiments. The α error probability was set at 0.05 (p < 0.05). The exact size group for the behavioral experiments is shown in the corresponding figure legends. All statistic calculations were carried out using GraphPad Prism (GraphPad software, San Diego, CA, USA).

Row | SMILES | CPP rewarding effect vs saline (Swiss CD-1 mice; any dose tested (3, 10, 30 mg/kg i.p.)) | CC50 at 24 h [1] [mM] | CPP preference score vs saline (Swiss CD-1 mice) | CPP rewarding effect vs saline (Swiss CD-1 mice; 10 mg/kg i.p.)
1 | CCCCCC(NCC)C(=O)c1ccccc1 (stereo not shown) [NEHP, N-ethyl-heptedrone] | did not induce a significant rewarding effect | 1.26 | – | –
2 | CCNC(C)C(=O)c1ccccc1 (stereo not shown) [NEC, N-ethyl-cathinone] | – | 3.97 | significant preference score | produce rewarding effects
3 | CCCC(NCC)C(=O)c1ccccc1 (stereo not shown) [NEPD, N-ethyl-pentedrone] | – | 3.82 | significant preference score | produce rewarding effects
4 | CCCCC(NCC)C(=O)c1ccccc1 (stereo not shown) [NEH, N-ethyl-hexedrone] | – | 3.28 | – | produce rewarding effects
5 | CCNC(CC)C(=O)c1ccccc1 (stereo not shown) [NEB, N-ethyl-buphedrone] | – | 6.24 | significant preference score | produce rewarding effects
